Data set [1] is described as follows: Powder dissolution rate test. To be noted: 50 rpm, samples equivalent to 10 mg of curcumin. It counts as physicochemical. The procedure:
Powder dissolution experiments were conducted in pH 2.0 and pH 4.5 buffer solutions (containing 0.5% Tween 80) at a temperature of 37°C and a rotation speed of 50 rpm. The commercially available curcumin crystals and the powder of the curcumin-L-carnitine cocrystal from Example 3 were sieved through a 100-mesh screen to eliminate the effect of particle size on dissolution. Samples equivalent to 10 mg of curcumin were placed into the sample vessels of the dissolution apparatus, stirred, and samples were taken at 3, 5, 10, 15, 20, 30, 45, 60, 90, and 120 minutes. Concentrations were determined using HPLC. In the pH 2.0 buffer solution, the dissolution of the cocrystal at 3 minutes was about 7 times that of curcumin itself. In the pH 4.5 buffer solution, the dissolution of the cocrystal at 3 minutes was about 8 times that of curcumin itself.

Data set [2] in a line: Bioavailability test (plasma pharmacokinetics after intragastric administration). The note with it: rat, in vivo, 200 mg/kg. The arrangement: species or system Male SD rats. The procedure:
Male SD rats (weighing 200-300 g) kept under good feeding conditions were used for the experiment. A total of 12 rats were used, evenly divided into 2 groups of 6 rats each. Commercially available curcumin crystals and the cocrystal obtained in Example 3 were uniformly dispersed in soybean oil and administered intragastrically as a suspension. The dosage was 200 mg/kg based on curcumin content. Blood samples (1 mL per time point) were collected from the orbital venous plexus at 20 minutes, 40 minutes, 1 hour, 1.5 hours, 2.5 hours, 4 hours, 6 hours, and 8 hours after administration. Plasma was separated by centrifugation within 0.5 hours of blood collection at 10,000 rpm for 5 minutes. 100 µL of plasma was precisely transferred, added with 50 µL of enzyme buffer solution, incubated at 37°C for 60 min, then added with 0.45 mL of methanol (containing 0.2% acetic acid), vortexed for 10 min, centrifuged at 14000 rpm for 3 min, and the supernatant was collected for HPLC analysis. Table 4. Pharmacokinetic parameters for commercially available curcumin crystals and curcumin-L-carnitine cocrystal.

A word on the Cmax: it is the highest concentration seen after dosing. As a reminder, the Tmax is the time from dosing to the highest level. On to “cocrystal of curcumin and L-carnitine [Curcumin-L-carnitine cocrystal]”, for which the “dissolution of the cocrystal at 3 minutes relative to curcumin itself” value in data set [1] (pH 2.0 buffer solution containing 0.5% Tween 80, 37°C) is listed as “about 7 times”; in data set [1] (pH 4.5 buffer solution containing 0.5% Tween 80, 37°C), “about 8 times”. Moreover, the “maximum plasma concentration of curcumin relative to commercially available curcumin crystals” value in data set [2] was determined as 10.7 times. The substance further showed a Cmax in data set [2] (po) of 727.8 ng/mL. Also, the Tmax in data set [2] (po) came out at 20 min. The AUC0-8h in data set [2] (po, 8 h) came out at 692.5 ng·h/mL.

(Values after patent publication EP4810476A1, “COCRYSTAL OF CURCUMIN AND L-CARNITINE, AND PREPARATION METHOD THEREFOR AND USE THEREOF” (Cocrystal Health Industry (Zhejiang) Co., Ltd., priority 2023, dated 2025).)
